EC50 and Emax data for 41 compounds are collected here from patent US20160318933A1, “FUSED PYRAZOLE DERIVATIVE” (SUMITOMO DAINIPPON PHARMA CO., LTD., priority 2013, published 2016).

By EC50 is commonly meant the concentration giving half of the maximal effect.

The target of the assay is T1, human brain-derived dopamine D4 receptor (Homo sapiens, UniProt P21917).
T1 construct: expressed in transfected cells; host or cells: CHO (CHO-K1) or HEK293 cells
T1 sequence (P21917 1-419): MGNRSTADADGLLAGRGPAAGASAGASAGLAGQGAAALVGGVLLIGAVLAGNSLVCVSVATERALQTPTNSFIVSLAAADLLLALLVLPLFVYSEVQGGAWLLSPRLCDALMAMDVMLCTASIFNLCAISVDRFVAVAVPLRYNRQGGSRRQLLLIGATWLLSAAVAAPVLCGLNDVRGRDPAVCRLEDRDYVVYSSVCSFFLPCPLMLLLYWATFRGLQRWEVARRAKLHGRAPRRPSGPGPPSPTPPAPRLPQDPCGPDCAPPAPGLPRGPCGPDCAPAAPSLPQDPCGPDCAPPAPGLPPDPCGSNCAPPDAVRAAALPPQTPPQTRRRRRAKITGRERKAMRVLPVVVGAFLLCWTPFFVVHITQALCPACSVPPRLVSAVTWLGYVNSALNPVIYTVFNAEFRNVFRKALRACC
The assay can be described thus: Agonistic activity in G protein dependent pathway of dopamine D4 receptor (aequorin intracellular calcium luminescence, FDSS). The format is cell-based. Particulars: for EC50: concentration required to achieve a 50% response of Emax, CHO-K1 or HEK293 cells transfected with D4 receptor; for Emax: read-out: Maximal activity on D4 receptor (%). An excerpt: The G protein dependent pathway is a pathway for transmitting signals in cells via a second messenger by stimulating a G protein through the binding of guanosine triphosphate (GTP) to the G protein. When GPCRs are activated by the binding of a ligand, a G protein binds to the GPCRs, and thereby GTP binds to a Gα subunit that is one of G protein subunits and a Gγβ subunit is dissociated. The activated Gα subunit regulates intracellular cAMP levels by the activation or inhibition of an adenylate cyclase, and regulates intracellular calcium levels by the activation of phospholipase C to transmit signals in cells.
The agonistic activities of the present compounds in the G protein dependent pathway were evaluated on the basis of intracellular calcium levels as follows. CHO-K1 or HEK293 cell lines transfected with D4 receptor genes were seeded in a 384-well plate, and incubated in a CO2 incubator at 37° C. for 24 hours, and then a solution of the present compound in DMSO was added into cells preloaded with coelenterazine to measure the change in luminescent signals with a FDSS (Hamamatsu Photonics K.K.). […] The agonistic activity of the present compound was calculated according to the measured luminescent signals, as the maximal activity (Emax) of the present compound. EC50 value was calculated as the concentration of the present compound required to achieve a 50% response of Emax.

For the compound `c1ccc(CN2CCn3nc(-c4ccccn4)cc3C2)cc1` [Example 1, 5-Benzyl-2-(pyridin-2-yl)-4,5,6,7-tetrahydropyrazolo[1,5-a]pyrazine], the EC50 worked out at 0.02 µM and the Emax was found to be 71%.

As for `Fc1ccc(CN2CCn3nc(-c4ccccn4)cc3C2)cc1` [Example 2], the EC50 was 0.028 µM and the Emax is 83%.

On to `c1ccc(-c2cc3n(n2)CCN(Cc2n[nH]c4ccccc24)C3)nc1` [Example 3], for which the EC50 stood at 0.019 µM and the Emax is 60%.

As to `Fc1ccc2[nH]nc(CN3CCn4nc(-c5ccccn5)cc4C3)c2c1` [Example 4], the EC50 turned out to be 0.017 µM and the Emax worked out at 60%.

Turning to `c1ccc(CN2CCCn3nc(-c4ccccn4)cc3C2)cc1` [Example 8], the EC50 came to 0.105 µM and the Emax was 37%.

For the compound `Fc1ccc(CN2CCCn3nc(-c4ccccn4)cc3C2)cc1` [Example 9], the EC50 was determined as 0.089 µM and the Emax came to 34%.

With `c1ccc(-c2cc3n(n2)CCN(Cc2ccc4[nH]ncc4c2)C3)nc1` [Example 13], the EC50 was found to be 0.116 µM and the Emax amounted to 65%.

As for `c1ccc(-c2cc3n(n2)CCN(Cc2cccc4[nH]cnc24)C3)nc1` [Example 14], the concentration giving a half-maximal response (EC50) was determined as 0.084 µM and the Emax amounted to 46%.

For the compound `c1ccc(-c2cc3n(n2)CCN(Cc2ccc4cn[nH]c4c2)C3)nc1` [Example 15], the EC50 amounted to 0.0092 µM and the Emax came to 62%.

As to `COc1ccccc1-c1cc2n(n1)CCN(Cc1ccc(C)nc1N)C2` [Example 16], the half-maximal effective concentration (EC50) came to 0.138 µM and the Emax came out at 51%.

With `COc1ccccc1-c1cc2n(n1)CCN(Cc1cn3ccccc3n1)C2` [Example 17], the half-maximal effective concentration (EC50) was determined as 0.025 µM and the Emax stood at 52%.

Turning to `COc1ccccc1-c1cc2n(n1)CCN(Cc1ccc(F)c(C#N)c1)C2` [Example 18], the EC50 was 0.06 µM and the Emax is 83%.

As for `Cc1ccc(CN2CCn3nc(-c4ccccn4)cc3C2)c(N)n1` [Example 19], the concentration for a half-maximal effect (EC50) stood at 0.054 µM and the Emax was 63%.

For the compound `O=C1CCc2ccc(CN3CCn4nc(-c5ccccn5)cc4C3)cc2N1` [Example 20], the EC50 is 0.051 µM and the Emax came to 42%.

Consider `Nc1nc(C(F)(F)F)ccc1CN1CCn2nc(-c3ccccn3)cc2C1` [Example 21], for which the EC50 worked out at 0.047 µM and the Emax is 59%.

`CN1Cc2ccc(CN3CCn4nc(-c5ccccn5)cc4C3)cc2C1` [Example 23, 5-[(2-Methyl-2,3-dihydro-1H-isoindol-5-yl)methyl]-2-(pyridin-2-yl)-4,5,6,7-tetrahydropyrazolo[1,5-a]pyrazine]: the EC50 was found to be 0.025 µM and the Emax was determined as 71%.

As for `COc1ccccc1-c1cc2n(n1)CCN(Cc1ccc(F)cc1F)C2` [Example 25, 5-(2,4-Difluorobenzyl)-2-(2-methoxyphenyl)-4,5,6,7-tetrahydropyrazolo[1,5-a]pyrazine], the EC50 came to 0.1 µM and the Emax was 57%.

Turning to `Cc1ccccc1CN1CCn2nc(-c3ccccn3)cc2C1` [Example 26], the concentration for a half-maximal effect (EC50) is 0.061 µM and the Emax turned out to be 49%.

`Cc1cccc(CN2CCn3nc(-c4ccccn4)cc3C2)c1` [Example 27]: the EC50 worked out at 0.0005 µM and the Emax worked out at 62%.

Consider `N#Cc1ccc(CN2CCn3nc(-c4ccccn4)cc3C2)cc1` [Example 29], for which the EC50 was found to be 0.038 µM and the Emax came out at 48%.

As to `Cc1ncc(CN2CCn3nc(-c4ncccc4C)cc3C2)c(N)n1` [Example 30, 2-Methyl-5-{[2-(3-methylpyridin-2-yl)-6,7-dihydropyrazolo[1,5-a]pyrazin-5(4H)-yl]methyl}pyrimidine-4-amine], the 50% effective concentration (EC50) came to 0.079 µM and the Emax came to 53%.

`Cc1c(-c2ccccn2)nn2c1CN(Cc1ccccc1)CCC2` [Example 32, 5-Benzyl-3-methyl-2-(pyridin-2-yl)-5,6,7,8-tetrahydro-4H-pyrazolo[1,5-a][1,4]diazepine]: the EC50 was 0.019 µM and the Emax was found to be 52%.

As to `Fc1c(-c2ccccn2)nn2c1CN(Cc1ccccc1)CCC2` [Example 33, 5-Benzyl-3-fluoro-2-(pyridin-2-yl)-5,6,7,8-tetrahydro-4H-pyrazolo[1,5-a][1,4]diazepine], the 50% effective concentration (EC50) is 0.063 µM and the Emax stood at 41%.

With `Cc1cccnc1-c1cc2n(n1)CCN(Cc1ccc3cn[nH]c3c1)C2` [Example 34], the concentration for a half-maximal effect (EC50) came to 0.0053 µM and the Emax is 73%.

Regarding `Cc1cccnc1-c1cc2n(n1)CCN(Cc1n[nH]c3ccccc13)C2` [Example 35], the concentration giving a half-maximal response (EC50) is 0.0043 µM and the Emax turned out to be 87%.

With `N#Cc1cc(CN2CCn3nc(-c4ccccn4)cc3C2)ccc1F` [Example 36], the EC50 was 0.04 µM and the Emax turned out to be 77%.

As for `Cc1n[nH]c2ccc(CN3CCn4nc(-c5ccccn5)cc4C3)cc12` [Example 37], the half-maximal effective concentration (EC50) came to 0.062 µM and the Emax was 54%.

As to `c1ccc(-c2cc3n(n2)CCN(Cc2ccc4occc4c2)C3)nc1` [Example 39], the EC50 stood at 0.035 µM and the Emax worked out at 69%.

As for `Cc1cccnc1-c1cc2n(n1)CCN(Cc1n[nH]c3c(F)cccc13)C2` [Example 40], the EC50 was 0.011 µM and the Emax is 70%.

On to `Cc1cccnc1-c1cc2n(n1)CCN(Cc1ccc3c(c1)NC(=O)CC3)C2` [Example 41], for which the EC50 is 0.046 µM and the Emax was determined as 54%.

On to `Cc1nc2c(CN3CCn4nc(-c5ccccn5)cc4C3)cccc2[nH]1` [Example 42], for which the half-maximal effective concentration (EC50) worked out at 0.1 µM and the Emax was 50%.

With `Cc1ccc(CN2CCn3nc(-c4ncccc4C)cc3C2)c(N)n1` [Example 43], the concentration for a half-maximal effect (EC50) stood at 0.015 µM and the Emax worked out at 77%.

For `Cc1cccnc1-c1cc2n(n1)CCN(Cc1n[nH]c3ccc(F)cc13)C2` [Example 44], the EC50 worked out at 0.026 µM and the Emax is 98%.

Turning to `Cc1cccnc1-c1cc2n(n1)CCN(Cc1n[nH]c3cccc(C)c13)C2` [Example 45], the concentration for a half-maximal effect (EC50) came to 0.157 µM and the Emax was 54%.

For the compound `Cc1ncc(CN2CCn3nc(-c4ncccc4F)cc3C2)c(N)n1` [Example 46], the half-maximal effective concentration (EC50) was 0.045 µM and the Emax worked out at 59%.

Regarding `Cc1cccnc1-c1cc2n(n1)CCN(Cc1ccc(C(F)(F)F)cc1F)C2` [Example 47], the EC50 came out at 0.071 µM and the Emax was 65%.

With `Cc1cccnc1-c1cc2n(n1)CCN(Cc1ccc(C(F)(F)F)c(F)c1)C2` [Example 48], the concentration giving a half-maximal response (EC50) amounted to 0.096 µM and the Emax is 50%.

For `Cc1cccnc1-c1cc2n(n1)CCN(Cc1ccc(CF)cc1)C2` [Example 49], the EC50 is 0.019 µM and the Emax was 84%.

Regarding `Cc1ccc(CN2CCn3nc(-c4ncccc4F)cc3C2)cn1` [Example 50], the half-maximal effective concentration (EC50) turned out to be 0.061 µM and the Emax came to 41%.

`O=C1NCc2cc(CN3CCn4nc(-c5ccccn5)cc4C3)ccc21` [Example 51]: the concentration for a half-maximal effect (EC50) stood at 0.07 µM and the Emax was 32%.

Turning to `Cc1cccnc1-c1cc2n(n1)CCN(Cc1ccc(OC(F)(F)F)cc1C#N)C2` [Example 52], the EC50 came to 0.034 µM and the Emax amounted to 58%.
